What was measured:
ICR mice = assay: Morris water maze test, scopolamine-induced memory damage; assay type: in vivo, mouse; settings: memory acquisition test for 4 days; scopolamine 1 mg/kg i.p.; test samples oral (extract 3, 10, 30, 100, 200 mg/kg)
Description: To observe the cell-protecting effect and cognitive function-improving effect of the Plumula nelumbinis extract in vivo using a Morris water maze test, International Cancer Research (ICR) mice having an average weight of about 30 g were purchased and acclimated to the environment of the laboratory for 1 week before use in the experiment. The animal breeding room was maintained at room temperature (ca. 22±2° C.) with 12 h light (200-300 lux)/12 h dark cycles. The animals had free access to food (i.e., 22.1% or more crude protein, 8.0% or less crude fat, 0.6% or more calcium, and 0.4% or more phosphorus; Samyang Corp., Korea) and water. The animals were divided into a control group administered with the same amount of injectable saline without scopolamine (Sigma Aldrich), and a group administered with scopolamine. The group administered with scopolamine was treated with 3, 10, 30, 100 and 200 mg/kg of a 80% methanol extract of Plumula nelumbinis. As a positive control, donepezil was used, which is a cholinesterase inhibitor-based drug approved by the FDA, and is used for the treatment of mild, moderate, or severe Alzheimer's disease and for the alleviation of vascular dementia (i.e., dementia involving cerebrovascular disease).
Each of the test samples and the positive control drug was suspended in injectable sterile water and administered at a unit dose of 10 ml/kg. Scopolamine (1 mg/kg) was administered intraperitoneally each day for 4 days, and the test sample and the positive control drug were administered orally (FIGS. 8A and 8B).
In the water maze test, a learning trial was performed on the day before administration of the extract, and then a memory acquisition test was repeated for 4 days. In the learning trial, each test animal was placed into a water pool ([…]) at one of four release points and allowed to find a platform ([…]) by swimming for 60 seconds. […]
During the memory acquisition test, 1 mg/kg of scopolamine was administered intraperitoneally once a day for 4 days at 60 minutes after administration of the Plumula nelumbinis extract. […] The cognitive ability-improving effect was evaluated by measuring the average swimming time (sec) taken for the test animal to find the platform (sec).
After the learning trial for 1 day, scopolamine was administered to cause damage to cognitive function (memory), and the Moths water maze test was performed to examine the cognitive function-improving effect of the extract. In the memory acquisition test performed over 4 days, the cognitive function-improving effect of the extract was evaluated based on a decrease in each of the average swimming times taken to find the platform and the swimming distance. […]

[1] = DPPH radical scavenging activity; settings: 30 minutes in the dark, absorbance at 517 nm
Description: The test sample was weighed, dissolved in methanol or ethanol, and then filtered through a 0.45-μm filter. The prepared sample was serially diluted. Varying concentrations of 150 μl of each diluted sample were added to a 96-well micro plate, followed by addition of DPPH. The 96-well micro plate was placed in a dark room and allowed to stand for 30 minutes. The absorbance at 517 nm was measured.

[2] = Hydrogen peroxide (H2O2) scavenging activity, ABTS-peroxidase system; settings: pH 5.0, absorbance at 405 nm
Description: Hydrogen peroxide (H2O2) scavenging activity was measured in a 2,2-azinobis(3-ethylbenzthiazolin)-6-sulfonicacid (ABTS)-peroxidase system according to the Muller method. Each sample was diluted at varying concentrations. 80 μL of each sample solution, 20 μL of 10 mM H2O2 and 100 μL of phosphate buffer (pH 5.0, 0.1 M) were added to a 96-well plate and reacted at 37° C. for 5 minutes. Then, 30 μL of 1.25 mM ABTS and 30 μL of 1 U/mL peroxidase were added thereto and reacted at 37° C. for 10 minutes, and the absorbance at 405 nm was measured using an enzyme-linked immunosorbent assay (ELISA) reader.

Structure (SMILES) | average swimming distance (ICR mice) | average swimming time taken to find the platform (ICR mice) | DPPH radical scavenging IC50 [1] [µg/mL] | hydrogen peroxide (H2O2) scavenging IC50 [2] [µg/mL]
CN1[C@@H]2C[C@@H](OC(=O)[C@H](CO)c3ccccc3)C[C@H]1[C@@H]1O[C@@H]12 [scopolamine] | increased rather than decreased | increased rather than decreased | – | –
COc1cc2c(cc1OC)C(=O)C(CC1CCN(Cc3ccccc3)CC1)C2 (stereo not drawn) [donepezil] | gradual decreases | gradual decreases | – | –
O=C1O[C@H]([C@@H](O)CO)C(O)=C1O [vitamin C, ascorbic acid] | – | – | 27.73 | –
COc1ccc(O)c(C(C)(C)C)c1 [butylated hydroxy anisole (BHA), butylated hydroxy anisole] | – | – | – | 160.58

Source: US20140370131A1, “Pharmaceutical Composition for Protecting Brain Neurons Comprising Plumula Nelumbinis Extract as Active Ingredient” (priority 2012, published 2014)
